Test results reported in PubChem BioAssay (NCI).
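The compound was tested at five concentrations on cells cultured in 96-well plates, with a 48-hour exposure period. GI50 is the concentration that inhibits growth by half. At the TGI there is no net growth.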

Key:
Assay in all cases: NCI-60 cell line screen, 48 h
786-0 renal = tested on: 786-0 renal
A498 renal = tested on: A498 renal
A549 NSCLC = tested on: A549 NSCLC
ACHN renal = tested on: ACHN renal
BT-549 breast = tested on: BT-549 breast
CCRF-CEM leukemia = tested on: CCRF-CEM leukemia
COLO 205 colon = tested on: COLO 205 colon
DU-145 prostate = tested on: DU-145 prostate
EKVX NSCLC = tested on: EKVX NSCLC
HCC-2998 colon = tested on: HCC-2998 colon
HCT-116 colon = tested on: HCT-116 colon
HCT-15 colon = tested on: HCT-15 colon
HL-60(TB) leukemia = tested on: HL-60(TB) leukemia
HOP-62 NSCLC = tested on: HOP-62 NSCLC
HOP-92 NSCLC = tested on: HOP-92 NSCLC
HS 578T breast = tested on: HS 578T breast
HT29 colon = tested on: HT29 colon
IGROV1 ovarian = tested on: IGROV1 ovarian
K-562 leukemia = tested on: K-562 leukemia
KM12 colon = tested on: KM12 colon
LOX IMVI melanoma = tested on: LOX IMVI melanoma
M14 melanoma = tested on: M14 melanoma
MALME-3M melanoma = tested on: MALME-3M melanoma
MCF7 breast = tested on: MCF7 breast
MDA-MB-231 breast = tested on: MDA-MB-231 breast
MDA-MB-435 = tested on: MDA-MB-435
MOLT-4 leukemia = tested on: MOLT-4 leukemia
NCI-H226 lung = tested on: NCI-H226 lung
NCI-H23 lung = tested on: NCI-H23 lung
NCI-H460 lung = tested on: NCI-H460 lung
NCI-H522 lung = tested on: NCI-H522 lung
NCI/ADR-RES ovarian = tested on: NCI/ADR-RES ovarian
OVCAR-3 ovarian = tested on: OVCAR-3 ovarian
OVCAR-4 ovarian = tested on: OVCAR-4 ovarian
OVCAR-5 ovarian = tested on: OVCAR-5 ovarian
OVCAR-8 ovarian = tested on: OVCAR-8 ovarian
PC-3 prostate = tested on: PC-3 prostate
RPMI-8226 leukemia = tested on: RPMI-8226 leukemia
RXF 393 renal = tested on: RXF 393 renal
SF-268 CNS = tested on: SF-268 CNS
SF-295 CNS = tested on: SF-295 CNS
SF-539 CNS = tested on: SF-539 CNS
SK-MEL-2 melanoma = tested on: SK-MEL-2 melanoma
SK-MEL-28 melanoma = tested on: SK-MEL-28 melanoma
SK-MEL-5 melanoma = tested on: SK-MEL-5 melanoma
SK-OV-3 ovarian = tested on: SK-OV-3 ovarian
SN12C renal = tested on: SN12C renal
SNB-19 CNS = tested on: SNB-19 CNS
SNB-75 CNS = tested on: SNB-75 CNS
SR leukemia = tested on: SR leukemia
SW-620 colon = tested on: SW-620 colon
T-47D breast = tested on: T-47D breast
TK-10 renal = tested on: TK-10 renal
U251 CNS = tested on: U251 CNS
UACC-257 melanoma = tested on: UACC-257 melanoma
UACC-62 melanoma = tested on: UACC-62 melanoma
UO-31 renal = tested on: UO-31 renal

SMILES: CN1CCN(c2cc(C(=O)Nc3cc4cc(-c5cnn(C)c5)ccc4cn3)ccn2)CC1
- GI50 (786-0 renal): 300 nM
- TGI (786-0 renal): 10400 nM
- GI50 (A498 renal): 60.5 nM
- TGI (A498 renal): 447 nM
- GI50 (A549 NSCLC): 43.2 nM
- TGI (A549 NSCLC): 11400 nM
- GI50 (ACHN renal): 59.7 nM
- TGI (ACHN renal): 548 nM
- GI50 (BT-549 breast): 78.1 nM
- TGI (BT-549 breast): 838 nM
- GI50 (CCRF-CEM leukemia): 155 nM
- TGI (CCRF-CEM leukemia): > 39200 nM
- GI50 (COLO 205 colon): 67.3 nM
- TGI (COLO 205 colon): 494 nM
- GI50 (DU-145 prostate): 97.1 nM
- TGI (DU-145 prostate): 11400 nM
- GI50 (EKVX NSCLC): 302 nM
- TGI (EKVX NSCLC): 14300 nM
- GI50 (HCC-2998 colon): 276 nM
- TGI (HCC-2998 colon): 4570 nM
- GI50 (HCT-116 colon): 37.6 nM
- TGI (HCT-116 colon): 11400 nM
- GI50 (HCT-15 colon): 66.6 nM
- TGI (HCT-15 colon): 2460 nM
- GI50 (HL-60(TB) leukemia): 119 nM
- TGI (HL-60(TB) leukemia): 7910 nM
- GI50 (HOP-62 NSCLC): 207 nM
- TGI (HOP-62 NSCLC): 12700 nM
- GI50 (HOP-92 NSCLC): 160 nM
- TGI (HOP-92 NSCLC): 3600 nM
- GI50 (HS 578T breast): 276 nM
- TGI (HS 578T breast): 6180 nM
- GI50 (HT29 colon): 182 nM
- TGI (HT29 colon): 442 nM
- GI50 (IGROV1 ovarian): 58.1 nM
- TGI (IGROV1 ovarian): 3300 nM
- GI50 (K-562 leukemia): 72.7 nM
- TGI (K-562 leukemia): > 100000 nM
- GI50 (KM12 colon): 71 nM
- TGI (KM12 colon): 11900 nM
- GI50 (LOX IMVI melanoma): 93.3 nM
- TGI (LOX IMVI melanoma): 262 nM
- GI50 (M14 melanoma): 220 nM
- TGI (M14 melanoma): 13300 nM
- GI50 (MALME-3M melanoma): 155 nM
- TGI (MALME-3M melanoma): 584 nM
- GI50 (MCF7 breast): 91.1 nM
- TGI (MCF7 breast): 399 nM
- GI50 (MDA-MB-231 breast): 219 nM
- TGI (MDA-MB-231 breast): 3750 nM
- GI50 (MDA-MB-435): 169 nM
- TGI (MDA-MB-435): 13200 nM
- GI50 (MOLT-4 leukemia): 221 nM
- TGI (MOLT-4 leukemia): 18000 nM
- GI50 (NCI-H226 lung): 205 nM
- TGI (NCI-H226 lung): 12000 nM
- GI50 (NCI-H23 lung): 111 nM
- TGI (NCI-H23 lung): 3290 nM
- GI50 (NCI-H460 lung): 121 nM
- TGI (NCI-H460 lung): 11700 nM
- GI50 (NCI-H522 lung): 47.2 nM
- TGI (NCI-H522 lung): 327 nM
- GI50 (NCI/ADR-RES ovarian): 246 nM
- TGI (NCI/ADR-RES ovarian): 76400 nM
- GI50 (OVCAR-3 ovarian): 42.5 nM
- TGI (OVCAR-3 ovarian): 288 nM
- GI50 (OVCAR-4 ovarian): 151 nM
- TGI (OVCAR-4 ovarian): 1460 nM
- GI50 (OVCAR-5 ovarian): 308 nM
- TGI (OVCAR-5 ovarian): 11900 nM
- GI50 (OVCAR-8 ovarian): 225 nM
- TGI (OVCAR-8 ovarian): 11700 nM
- GI50 (PC-3 prostate): 314 nM
- TGI (PC-3 prostate): 31400 nM
- GI50 (RPMI-8226 leukemia): 108 nM
- GI50 (RXF 393 renal): 258 nM
- TGI (RXF 393 renal): 724 nM
- GI50 (SF-268 CNS): 200 nM
- TGI (SF-268 CNS): 6590 nM
- GI50 (SF-295 CNS): 306 nM
- TGI (SF-295 CNS): 13200 nM
- GI50 (SF-539 CNS): 153 nM
- TGI (SF-539 CNS): 2380 nM
- GI50 (SK-MEL-2 melanoma): 113 nM
- TGI (SK-MEL-2 melanoma): 364 nM
- GI50 (SK-MEL-28 melanoma): 217 nM
- TGI (SK-MEL-28 melanoma): 2890 nM
- GI50 (SK-MEL-5 melanoma): 155 nM
- TGI (SK-MEL-5 melanoma): 331 nM
- GI50 (SK-OV-3 ovarian): 63.1 nM
- TGI (SK-OV-3 ovarian): 2440 nM
- GI50 (SN12C renal): 123 nM
- TGI (SN12C renal): 12700 nM
- GI50 (SNB-19 CNS): 121 nM
- TGI (SNB-19 CNS): 12000 nM
- GI50 (SNB-75 CNS): 137 nM
- TGI (SNB-75 CNS): 833 nM
- GI50 (SR leukemia): 47.2 nM
- TGI (SR leukemia): 13600 nM
- GI50 (SW-620 colon): 42.2 nM
- TGI (SW-620 colon): 11700 nM
- GI50 (T-47D breast): 76.9 nM
- TGI (T-47D breast): 10500 nM
- GI50 (TK-10 renal): 202 nM
- TGI (TK-10 renal): 11400 nM
- GI50 (U251 CNS): 188 nM
- TGI (U251 CNS): 13200 nM
- GI50 (UACC-257 melanoma): 146 nM
- TGI (UACC-257 melanoma): 10400 nM
- GI50 (UACC-62 melanoma): 192 nM
- TGI (UACC-62 melanoma): 646 nM
- GI50 (UO-31 renal): 122 nM
- TGI (UO-31 renal): 532 nM
